Measurements reported in patent US20060276464A1, “Diarylsulfone sulfonamides and use thereof” (Wyeth, priority 2005, published 2006).
pEC50, pIC50: −log10 of the molar value. Several values for one entry are separate records, joined by “and”; a condition that tells them apart may be missing. Identical values can stand only once. Like-named read-outs stand apart in the source and are kept apart here.

What was measured:
SFRP-1 [1] = molecular target: T1, SFRP-1 (Homo sapiens, UniProt Q8N474); test: Fluorescence polarization binding assay (competitive displacement of a probe compound from SFRP-1); conditions: fluorescence anisotropy, 45 nM SFRP-1, 20 nM probe;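 also: test compound competes with a fluorescent probe held by SFRP-1, seen as a drop in probe anisotropy after incubation in darkness, with anisotropy as function of rising compound dose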
T1 sequence (Q8N474 32-314): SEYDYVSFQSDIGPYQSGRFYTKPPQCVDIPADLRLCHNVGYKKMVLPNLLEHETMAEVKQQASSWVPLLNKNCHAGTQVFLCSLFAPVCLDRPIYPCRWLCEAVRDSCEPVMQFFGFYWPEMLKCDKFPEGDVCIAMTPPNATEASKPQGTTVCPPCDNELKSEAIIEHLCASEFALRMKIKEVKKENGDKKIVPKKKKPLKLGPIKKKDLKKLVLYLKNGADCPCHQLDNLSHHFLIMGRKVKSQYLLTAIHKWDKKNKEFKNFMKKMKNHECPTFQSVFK

SFRP-1 [2] = molecular target: T1, SFRP-1; test: Cell-based assay for in vitro measurement of SFRP-1/SARP2 antagonist activity (U2OS cells co-transfected with 16x TCF-tk-Luciferase reporter, Wnt and hSFRP-1); conditions: for fold induction at 15 µM / fold induction at 10 µM: U2OS; for fold induction at 10 µM: read-out: Fold Induction with SFRP-1, U2OS cells, single dose 10 μM, luciferase reporter, fold induction over SFRP-1 control;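 as to all read-outs here: U2OS cells co-transfected with a TCF-tk luciferase reporter, a Wnt vector, hSFRP-1 or empty vector and CMV-βgal, luciferase luminescence read in cell lysates alongside βgal activity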
[3] = read-out: Fold Induction with SFRP-1, Conc 15 μM, single dose, luciferase reporter, fold induction over SFRP-1 control, cells with SFRP-1
[4] = read-out: Fold Induction without SFRP-1, Conc 15 μM, single dose, luciferase reporter, cells without SFRP-1 (specificity control)

pIC50 (SFRP-1 [1]) | fold induction at 15 µM (SFRP-1 [2]; [3]) | fold induction at 15 µM (SFRP-1 [2]; [4]) | melting point [°C] | fold induction at 10 µM (SFRP-1 [2]) | pEC50 (SFRP-1 [2]) | fold induction at 15 µM (SFRP-1 [2]; read-out: Fold Induction with SFRP-1, Conc 15 μM, with SFRP-1, fold induction over SFRP-1 control, single dose) | fold induction at 15 µM (SFRP-1 [2]; read-out: Fold Induction without SFRP-1, Conc 15 μM, without SFRP-1, single dose) | SMILES
5.60 and 5.52 | 1.3 | 1 | 179 to 181 |  |  |  |  | CC(C)c1cc(C(C)C)c(S(=O)(=O)c2ccccc2)cc1S(=O)(=O)NC1CCCC1 [Example 613, N-Cyclopentyl-2,4-diisopropyl-5-(phenylsulfonyl)benzenesulfonamide]
6.05 |  |  | 140 to 142 | 3 |  |  |  | CC(C)c1ccc(S(=O)(=O)c2ccccc2)cc1S(=O)(=O)NC1CCN(C(=O)c2ccc(C(F)(F)F)cc2)CC1 [Example 807, 2-Isopropyl-5-(phenylsulfonyl)-N-{1-[4-(trifluoromethyl)benzoyl]piperidin-4-yl}benzenesulfonamide]
6.54 |  |  | 160 to 162 | 3.2 |  |  |  | COc1ccccc1C(=O)N1CCC(NS(=O)(=O)c2cc(S(=O)(=O)c3ccccc3)ccc2C(C)C)CC1 [Example 803, 2-Isopropyl-N-[1-(2-methoxybenzoyl)piperidin-4-yl]-5-(phenylsulfonyl)benzenesulfonamide]
6.22 |  |  | 160 to 162 | 1.6 | 5.18 |  |  | CCCc1ccc(S(=O)(=O)c2ccc(F)cc2)cc1S(=O)(=O)NCCc1ccncc1 [Example 875, 5-[(4-Fluorophenyl)sulfonyl]-2-propyl-N-(2-pyridin-4-ylethyl)benzenesulfonamide]
6.22 |  |  | 155 to 157 | 3.6 | 5.81 |  |  | CCCc1ccc(S(=O)(=O)c2ccccc2)cc1S(=O)(=O)NCCc1ccncc1 [Example 859, 5-(Phenylsulfonyl)-2-propyl-N-(2-pyridin-4-ylethyl)benzenesulfonamide]
5.52 | 2.1 | 1 | 200 to 202 |  |  |  |  | CC(C)c1cc(C(C)C)c(S(=O)(=O)c2ccc(F)cc2)cc1S(=O)(=O)NCC1CCOCC1 [Example 629, 5-[(4-Fluorophenyl)sulfonyl]-2,4-diisopropyl-N-(tetrahydro-2H-pyran-4-ylmethyl)benzenesulfonamide]
6.15 and 5.96 | 3.1 | 1.2 | 100 to 102 |  |  |  |  | CCCc1ccc(S(=O)(=O)c2ccccc2)cc1S(=O)(=O)NCCc1ccccn1 [Example 555, 5-(Phenylsulfonyl)-2-propyl-N-(2-pyridin-2-ylethyl)benzenesulfonamide]
6.64 |  |  | 210 to 212 | 2.8 | 6.62 |  |  | CC(C)c1ccc(S(=O)(=O)c2ccccc2)cc1S(=O)(=O)NC1CCN(C(=O)c2ccccc2F)CC1 [Example 806, N-[1-(2-Fluorobenzoyl)piperidin-4-yl]-2-isopropyl-5-(phenylsulfonyl)benzenesulfonamide]
6.00 | 2.7 | 1 | 183 to 186 |  |  |  |  | CC(C)c1cc(C(C)C)c(S(=O)(=O)c2ccc(F)cc2)cc1S(=O)(=O)NC1CCOCC1 [Example 620, 5-[(4-Fluorophenyl)sulfonyl]-2,4-diisopropyl-N-(tetrahydro-2H-pyran-4-yl)benzenesulfonamide]
5.89 | 1.8 | 1 | 189 to 191 |  |  |  |  | CC(C)c1cc(C(C)C)c(S(=O)(=O)c2ccccc2)cc1S(=O)(=O)NCCc1ccccn1 [Example 614, 2,4-Diisopropyl-5-(phenylsulfonyl)-N-(2-pyridin-2-ylethyl)benzenesulfonamide]
5.77 and 5.57 | 1.6 | 0.9 | 131 to 133 |  |  |  |  | CCCc1ccc(S(=O)(=O)c2ccc(F)cc2)cc1S(=O)(=O)NC1CCOCC1 [Example 560, 5-[(4-Fluorophenyl)sulfonyl]-2-propyl-N-(tetrahydro-2H-pyran-4-yl)benzenesulfonamide]
6.10 | 2.7 | 1 | 163 to 165 |  |  |  |  | CC(C)c1cc(C(C)C)c(S(=O)(=O)c2ccccc2)cc1S(=O)(=O)NCCc1cccnc1 [Example 616, 2,4-Diisopropyl-5-(phenylsulfonyl)-N-(2-pyridin-3-ylethyl)benzenesulfonamide]
6.89 and 6.52 | 3.1 | 1.2 | 149 to 151 |  |  |  |  | O=S(=O)(NCCc1ccccn1)c1cc(S(=O)(=O)c2ccccc2)ccc1C(F)(F)F [Example 571, 5-(Phenylsulfonyl)-N-(2-pyridin-2-ylethyl)-2-(trifluoromethyl)benzenesulfonamide]
6.40 |  |  | 218 to 220 | 3 | 6.29 |  |  | CC(C)c1ccc(S(=O)(=O)c2ccccc2)cc1S(=O)(=O)NC1CCN(C(=O)c2ccc(F)cc2)CC1 [Example 805, N-[1-(4-Fluorobenzoyl)piperidin-4-yl]-2-isopropyl-5-(phenylsulfonyl)benzenesulfonamide]
5.40 | 2.4 | 1 | 159 to 161 |  |  |  |  | CC(C)c1cc(C(C)C)c(S(=O)(=O)c2ccc(F)cc2)cc1S(=O)(=O)NCCc1ccccn1 [Example 631, 5-[(4-Fluorophenyl)sulfonyl]-2,4-diisopropyl-N-(2-pyridin-2-ylethyl)benzenesulfonamide]
6.80 | 2.4 | 1.2 | 151 to 153 |  |  |  |  | O=S(=O)(NCCc1ccccc1)c1cc(S(=O)(=O)c2ccccc2)ccc1C(F)(F)F [Example 570, N-(2-Phenylethyl)-5-(phenylsulfonyl)-2-(trifluoromethyl)-benzenesulfonamide]
6.40 |  |  | 164 to 166 | 3.9 | 6.17 |  |  | CCOc1ccc2ccccc2c1C(=O)N1CCC(NS(=O)(=O)c2cc(S(=O)(=O)c3ccccc3)ccc2C(C)C)CC1 [Example 813, N-[1-(2-Ethoxy-1-naphthoyl)piperidin-4-yl]-2-isopropyl-5-(phenylsulfonyl)benzenesulfonamide]
5.22 |  |  | 55 to 60 |  |  | 1.8 | 1.1 | Cc1ccc(S(=O)(=O)c2cc3c(c(S(=O)(=O)NCCc4ccccc4F)c2)CCCC3)cc1 [Example 441, N-[2-(2-Fluorophenyl)ethyl]-3-[(4-methylphenyl)sulfonyl]-5,6,7,8-tetrahydronaphthalene-1-sulfonamide]
5.40 | 2.2 | 1 | 141 to 143 |  |  |  |  | CC(C)c1cc(C(C)C)c(S(=O)(=O)c2ccc(F)cc2)cc1S(=O)(=O)NCCC1CCOCC1 [Example 630, 5-[(4-Fluorophenyl)sulfonyl]-2,4-diisopropyl-N-[2-(tetrahydro-2H-pyran-4-yl)ethyl]benzenesulfonamide]
6.05 | 2.5 | 1.1 | 159 to 160 |  |  |  |  | CC(C)c1cc(C(C)C)c(S(=O)(=O)c2ccccc2)cc1S(=O)(=O)NC1CCOCC1 [Example 610, 2,4-Diisopropyl-5-(phenylsulfonyl)-N-(tetrahydro-2H-pyran-4-yl)benzenesulfonamide]
5.71 |  |  | 111 to 113 | 3.1 | 5.70 |  |  | CCCc1ccc(S(=O)(=O)c2ccc(F)cc2)cc1S(=O)(=O)NCCc1cccnc1 [Example 874, 5-[(4-Fluorophenyl)sulfonyl]-2-propyl-N-(2-pyridin-3-ylethyl)benzenesulfonamide]
6.30 |  |  | 163 to 165 | 3.7 | 6.02 |  |  | CC(C)c1ccc(S(=O)(=O)c2ccccc2)cc1S(=O)(=O)NC1CCN(C(=O)c2cccc3ccccc23)CC1 [Example 808, 2-Isopropyl-N-[1-(1-naphthoyl)piperidin-4-yl]-5-(phenylsulfonyl)benzenesulfonamide]
5.92 | 1.7 | 1 | 203 to 205 |  |  |  |  | CC(C)c1cc(C(C)C)c(S(=O)(=O)c2ccccc2)cc1S(=O)(=O)NCCCn1ccnc1 [Example 615, N-[3-(1H-Imidazol-1-yl)propyl]-2,4-diisopropyl-5-(phenylsulfonyl)benzenesulfonamide]
5.85 and 5.80 | 3.3 | 1.3 | 113 to 115 |  |  |  |  | CCCc1ccc(S(=O)(=O)c2ccc(F)cc2)cc1S(=O)(=O)NCCc1ccccn1 [Example 564, 5-[(4-Fluorophenyl)sulfonyl]-2-propyl-N-(2-pyridin-2-ylethyl)benzenesulfonamide]
6.52 and 6.30 | 3.8 | 1.1 | 155 to 158 |  |  |  |  | O=S(=O)(NC1CCOCC1)c1cc(S(=O)(=O)c2ccccc2)ccc1C(F)(F)F [Example 608, 5-(phenylsulfonyl)-N-(tetrahydro-2H-pyran-4-yl)-2-(trifluoromethyl)benzenesulfonamide]
